{
  "source": "patent US11779628B2",
  "about": "“Use of cell-permeable peptide inhibitors of the JNK signal transduction pathway for the treatment of various diseases” (Xigen Inflammation Ltd., priority 2014, dated 2023)",
  "key": {"[1]": {"test_system": "primary embryonic cultures and differentiated PC12 cells", "conditions": "after trophic withdrawal; cited from earlier work"}, "[2]": {"test_system": "gerbil, transient global ischemia", "conditions": "Carboni et al. 2004; cited from earlier work"}, "[3]": {"test_system": "Sprague-Dawley rats, STZ", "test": "Rat model of diabetic nephropathy (STZ, high fat diet)", "format": "in vivo", "conditions": "XG-102 1, 2, 4 mg/kg iv weekly; Losartan 25 mg/kg po daily; 9 weeks", "excerpt": "Losartan has been used as a positive control. Seventy-four male Sprague-Dawley rats (200-250 g; including 4 spare animals) from Charles River (Margate, Kent) were used. […] The diet has been purchased from Research Diets, New Jersey, USA. […] Animals have been housed in pairs throughout the study. […] During the third week of habituation, a blood sample has been taken from the lateral tail vein in the freely fed state using a hand-held glucose meter (One Touch Ultra 2). Blood sampling began at approximately 09:00. […] About 40 animals have been assigned to Cohort A and the remaining 30 to Cohort B, balanced as far as possible for body weight, plasma glucose and food and water intake. […] For the 7-day period post STZ dose, animals have been weighed daily and food and water intake determined twice weekly. For the remaining study duration, animals have been weighed and water and food intake assessed twice weekly (always on the day of intravenous dosing and typically on water refill day(s)). […] Animals have been weighed prior to dosing (this weight was recorded). Food and water have been recorded on the same days as the intravenous groups (A-E) only. […] Creatinine, glucose, urea, total protein and electrolytes (Na, K, Cl and Ca) have been determined on urine samples using a COBAS […] and associated reagents (n=2 for all urine analyses). […] Food consumed and water drunk has also been calculated. […]"}},
  "data": [
    {"smiles": "CCSCc1ccc2c(c1)c1c3c(c4c5cc(CSCC)ccc5n5c4c1n2[C@H]1C[C@](O)(C(=O)OC)[C@]5(C)O1)CNC3=O", "note": "[CEP-1347]", "values": [
      {"measurement": "neuronal survival", "setting": "[1]", "result": "promotes neuronal survival at dosages that inhibit activation of the c-Jun amino-terminal kinases (JNKs)"}
    ]},
    {"smiles": "N#CC(c1ccnc(NCCc2cccnc2)n1)c1nc2ccccc2s1", "note": "(stereo not drawn) [AS601245]", "values": [
      {"measurement": "delayed loss of hippocampal CA1 neurons", "setting": "[2]", "result": "provided significant protection against the delayed loss of hippocampal CA1 neurons"}
    ]},
    {"smiles": "CCCCc1nc(Cl)c(CO)n1Cc1ccc(-c2ccccc2-c2nn[nH]n2)cc1", "note": "[Losartan]", "values": [
      {"measurement": "body weight", "setting": "[3]", "result": "has been significantly lower"}
    ]}
  ]
}
